Measured values published in patent US9102667B2, “N-arylaminomethylene benzothiophenones for treatment of cardiovascular disease” (FORSCHUNGSVERBUND BERLIN E.V., priority 2011, dated 2015).
pIC50, pKd: −log10 of the molar value.

Tests used:
AKAP-PKA interaction = AKAP-PKA interaction (Homo sapiens, UniProt P13861); experiment: AKAP-PKA interaction (disruption) assays of Examples 1-3: alpha screen, surface plasmon resonance, ELISA (combined classification); assay type: binding; conditions: for pIC50: read-out: Activity (IC50 class)
Method: The inhibition of the interaction of the alpha RII subunit of protein kinase A with AKAP18-alpha by the compounds according to the invention is determined as follows:
The experiment measures the suitability of candidate compounds for the inhibition of the interaction between AKAP and PKA. An AKAP-GST fusion construct is immobilized on glutathione donor beads and His-RII-alpha on Ni-chelate acceptor beads. To the extent that the partners interact, singlet oxygen from the donor beads becomes free and activates the fluorescence emission of the acceptor beads. The fluorescence emission determined in the microplate reader is proportional to the intensity of interaction of the protein partners. The IC50 is determined from the results of the measurement of several concentrations of one candidate compound.
The details of the process were as follows: Two protein Solutions A and B are produced in a buffer (phosphate NaCl buffer, 0.1% polysorbate 80, 0.1% [=1 mg/ml BSA]). These contain (A) the histidine-6-tagged fusion construct RII-alpha-His (3.125 nmol/l) and (B) the glutathione-S-transferase-tagged fusion construct GST-AKAP18-alpha-d2-10 (6.25 nmol/l). One volume unit each of protein solution and bead suspension are incorporated, specifically Solution A of the His6-tagged protein with Ni-chelate bead suspension and Solution B of the GST-fusion protein with glutathione beads (Perkin Elmer Product No. 6765302), and in doing so the concentrations are selected according to the manufacturers information. The Mixtures A and B obtained are incubated for one hour at room temperature (RT) in the dark.
Then, 5 μl of Mixture A is laid out for each hole on a 384-hole microtiter plate, and then to start with 0.5 μl of a solution of the candidate compound in DMSO is added and then 5 μl of Mixture B. The resulting reaction mixture is incubated 1 h at RT in the dark. Then, the reaction is tempered to 28.5° C., and the emitter intensity of the acceptor is determined in a microtiter plate reader after excitation of the donor at 680 nm.
The relative inhibition of the AKAP-PKA interaction is calculated following the formula: 1−(xc−y)/(z−y) where: X=average of readings (n=3) at concentration c; Y=average of measurement data from bead-bead check (n=6); Z=average of measurement data from protein-protein check (n=6). Results:
Surface plasmon resonance analyses for competition in solution were performed with streptavidin-coated sensor chips (GE Healthcare, Uppsala, Sweden). The N-terminal biotinylated peptide AKAP18d-L314E was used, which is a variant of the RH-binding domains of AKAP18δ (Hundsrucker et al., Biochem. J. 396, 297-306, [2006]). The binding of the regulatory subunit of the human PKAII-α or RII-β onto the peptide surface of the AKAP18δ-L314E, or the inhibition of this binding to RII by the compounds of the invention, was measured on a Biacaore 3000 machine (Biacore/GE Healthcare) as previously described (Henn et al., J Biol Chem 279, 26654-26665 [2004]). The compounds were injected for 60 sec at a flow rate of 30 μl/min, and the dissociation phase was measured for 180 sec.
Multititer plates (Corning B.V. Life Sciences, Schiphol-Rijk, Netherlands) were coated with recombinantly produced PKA RIIα (15 ng/hole) by incubation with phosphate buffer containing protease inhibitors (1 h, 22° C.). The plate was then blocked with lactoprotein.
GST-AKA7δ (Hundsrucker et al., Biochem. J. 396, 297-306, [2006]; 15 ng/well) was incubated with and without candidate compounds on the plate for 1 h at 22° C. After washing, it was incubated with antibodies (rabbit) against AKA7δ (A18δ3) and then with a peroxidase-conjugated antirabbit antibody and developed with dye substrate (LumiLight Western Blotting Substrate, Roche Diagnostics, Mannheim, Germany). Luminescence activity was determined in a microplate reader (GeniosPro, Tecan, Durham, N.C., United States) at 10 msec integration.

[1] = system: TAC operated C57BL/6 mice; experiment: Echocardiography in the TAC model, Example 5a; assay type: in vivo
Method: Protocol: For intervention 12- to 14-week-old male C57BL/6 mice (Charles River Sulzfeld) were anesthetized by 2.4% isoflurane inhalation. Transverse aortic banding (TAC) was performed by tying a 7-0 prolene suture (Ethicon) ligature around the aorta and a blunted 26-gauge needle and subsequent removal of the needle. For sham controls the suture was not tied. TAC was confirmed by echocardiography and measurement of blood flow gradient 4 weeks after surgery. Next, mini-osmotic pumps (model 1004, Alzet) with T2/15 compound/vehicle were implanted i.p. Echocardiography was performed 2 and 4 weeks with compound treatment.
For echocardiography analyses mice were anesthetized by 2.4% isoflurane inhalation and ventricular measurements were done with a VisualSonics Vevo 2100 Imaging System equipped with a 45 MHz MS-550D MicroScan transducer. The observer was unaware of the genotypes and treatments.
Differences between experimental groups were analyzed using ANOVA test followed by Bonferroni's Multiple Comparison Test using Prism Graphpad 4. Data are presented as mean±SEM. P<0.05 values were considered significant.

PKA subunit RIIα = PKA subunit RIIα (Homo sapiens, UniProt P13861); experiment: Microscale Thermophoresis (MST); assay type: binding; conditions: 20 mM Phosphate, pH 7.5, 100 mM NaCl, 0.05% Tween 20, 5% DMSO, 25° C.
Method: Microscale Thermophoresis (MST) were performed on a monolith NT machine (nano tember technologies, Munich, Germany) with exemplary compounds (T2/11, 15, 59) in 20 mM Phosphate, pH 7.5, 100 mM NaCl, 0.05% Tween 20 and 5% DMSO according to the general protocol provided by the manufacturer. Interaction partners were PKA subunit RIIα labelled with blue fluorescent dye NT-495; the parameters were: LED blue, LED Power 80%, Laser Power 20-80%, 25° C. A constant concentration of compounds was titrated with increasing concentrations of unlabelled PKA RIIα (50 nM, 100 nM, 250 nM, 500 nM, 1 μM, 2.5 μM, 5 μM, 10 μM, 25 μM, 50 μM, 100 μM and 200 μM).

[2] = system: C57B1/6 mice undergoing TAC operations; experiment: Transverse aortic constriction (TAC) animal model, Example 5; assay type: in vivo
Method: In male C57B1/6 mice (12-14 weeks old, average weight 26 g), high pressure overload induced by restricting the aorta following the method published by de Alameida et al. (J vis exp. 2010 Apr. 21; [38]). Control animals were treated with sham operations. The animals were observed over a period of 4 weeks after the operation, and then mini osmotic pumps were implanted intraperitoneally with a compound to be tested (0.5, 5, 50, and 100 μmol/l, corresponding to 6 μg/kg/day) (Table 2), a β1-adrenergic receptor antagonist (metoprolol; 24 mg/kg/day), a β1-adrenergic receptor […], a PDE3-inhibitor (milrinone; 3.0 mg/kg/d), and DMSO. Echocardiograms were done two and four weeks after implantation.
As expected, the narrowing of the aorta leads to cardiac hypertrophy and chronic heart failure in the 4-week period after surgery. The ejection fraction (ejection fraction; Ef) is the portion of the blood contained in the chambers of the heart that is ejected in comparison with the total volume at the end of diastole of the ventricle. […] The following groups were measured:
Animals undergoing sham operations with • only DMSO as vehicle control (solid black bar); • Compound 59, 3 μg/kg/day in DMSO (checked bar); • Compound 59, 6 μg/kg/day in DMSO (bold crosshatched bar);
Animals undergoing TAC operations with • only DMSO as vehicle control (bold vertically hatched bar); • Compound 59, 0.03 μg/kg/day in DMSO (bold diagonal hatching to upper right); • Compound 59, 0.03 μg/kg/day in DMSO (bold diagonal hatching to lower right); • Compound 59, 3 μg/kg/day in DMSO (thin diagonal hatching to upper right); • Compound 59, 6 μg/kg/day in DMSO (thin diagonal hatching to lower right);

[3] = class from IC50 values in assays of Examples 1, 2 or 3
[4] = between 0.3 and 3 μg/kg/d, vs. DMSO

Chain of PKA subunit RIIα (P13861 whole entry): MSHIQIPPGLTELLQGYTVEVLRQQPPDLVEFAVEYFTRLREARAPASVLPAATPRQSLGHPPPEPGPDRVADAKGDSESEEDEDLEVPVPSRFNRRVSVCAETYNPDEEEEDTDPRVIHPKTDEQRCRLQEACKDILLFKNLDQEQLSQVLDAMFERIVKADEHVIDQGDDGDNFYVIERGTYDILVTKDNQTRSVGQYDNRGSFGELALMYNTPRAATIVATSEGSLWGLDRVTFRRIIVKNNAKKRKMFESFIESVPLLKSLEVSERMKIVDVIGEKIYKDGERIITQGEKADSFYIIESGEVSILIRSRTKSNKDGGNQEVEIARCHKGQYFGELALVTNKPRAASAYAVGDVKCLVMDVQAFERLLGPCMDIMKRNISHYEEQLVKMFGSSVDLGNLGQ
Chain of AKAP-PKA interaction (P13861 2-404 limits assumed): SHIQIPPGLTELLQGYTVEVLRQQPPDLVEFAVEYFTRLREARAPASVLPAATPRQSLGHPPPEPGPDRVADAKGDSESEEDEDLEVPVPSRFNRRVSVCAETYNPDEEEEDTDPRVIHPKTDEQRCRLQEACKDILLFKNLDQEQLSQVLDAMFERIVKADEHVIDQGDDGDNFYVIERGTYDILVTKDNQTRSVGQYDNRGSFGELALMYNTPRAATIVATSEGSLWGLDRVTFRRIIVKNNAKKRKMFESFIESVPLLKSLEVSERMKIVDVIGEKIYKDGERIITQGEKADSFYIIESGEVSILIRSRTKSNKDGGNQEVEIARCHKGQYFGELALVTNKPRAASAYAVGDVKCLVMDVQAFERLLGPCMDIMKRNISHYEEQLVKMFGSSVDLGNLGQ

N#Cc1cnc(N/C=C2\Sc3ccccc3C2=O)s1 [T2/15, 2-[[(z)-(3-oxobenzothiophene-2-ylidene)methyl]amino]thiazole-5-carbonitrile]
pIC50 (AKAP-PKA interaction; [3]): > 4.60 | cardiac function [1, 4]: improved function | heart rate or -mass [1, 4]: without increasing | wall dimensions and cavity diameter (IVSd, LVPWd, LVEDd) ([1]; echocardiography, i.p. mini-osmotic pump, 2 and 4 weeks treatment): no significant effect | HW/TL (heart weight normalized against tibia length) ([1]; treatment vs. DMSO, FIG. 6): has an effect on HW/TL | pKd (PKA subunit RIIα): 4.01

O=C(O)c1ccc(N/C=C2\Sc3ccccc3C2=O)cc1 [T2/59, 4-[[(z)-(3-oxobenzothiophene-2-ylidene)methyl]amino]benzoic acid]
pIC50 (AKAP-PKA interaction; [3]): > 3.60 | heart rate ([2]; TAC model mice): does not affect the heart rate | ejection fraction (Ef) ([2]; TAC operated mice, i.p. mini osmotic pump, depending on the dose, operated without treatment 20%, healthy >60%): 40% | heart weight (ratio of heart weight to the tibia length) ([2]; TAC operated treated mice, FIG. 2): falls significantly | pKd (PKA subunit RIIα): 4.05

Cc1cnc(N/C=C2\Sc3ccccc3C2=O)s1 [T2/11, (2Z)-2-[[(5-methylthiazole-2-yl)amino]methylene]benzothiophene-3-one]
IC50 relative to that of the unsubstituted mother compound (AKAP-PKA interaction; alkyl substituent on heteroaromatic pentacycle): about 50% | pIC50 (AKAP-PKA interaction; [3]): > 3.82 | pKd (PKA subunit RIIα): 4.50

O=C(O)c1cnc(N/C=C2\Sc3ccccc3C2=O)s1 [T2/16, 2-[[(z)-(3-oxobenzothiophene-2-ylidene)methyl]amino]thiazole-5-carboxylic acid]
pIC50 (AKAP-PKA interaction; [3]): > 3.60

O=C1/C(=C/Nc2ccc(O)cc2)Sc2ccccc21 [VI, (2Z)-2-[(4-hydroxyanilino)methylene]benzothiophen-3-one, reference compound]
Activity in AKAP-PKA interaction assays (in words) (AKAP-PKA interaction; assays of Examples 1-3): could not be found to show significant reduction of AKAP-PKA interaction

O=C1/C(=C/Nc2nc3ccccc3s2)Sc2ccccc21 [T2/23, (2Z)-2-[(1,3-benzothiazol-2-ylamino)methylene]-benzothiophen-3-one]
Activity (IC50 class) (AKAP-PKA interaction; [3]): (2Z)-2-[(1,3-benzothiazol-2-ylamino)methylene]- benzothiophen-3-one Activity A/B

O=C1/C(=C/Nc2cccc(Br)c2)Sc2ccccc21 [T2/37, (2Z)-2-[(3-bromoanilino)methylene]benzothiophene-3-one]
pIC50 (AKAP-PKA interaction; [3]): 3.12 to 3.60

O=C1/C(=C/Nc2nc3ccccc3s2)Oc2ccccc21 [T2/57, (2Z)-2-[(1,3-benzothiazole-2-ylamino)methylene]benzofuran-3-one]
pIC50 (AKAP-PKA interaction; [3]): 3.12 to 3.60

O=C1/C(=N/Nc2nccs2)Sc2ccccc21 [T2/50, (2Z)-2-(thiazole-2-ylhydrazono)benzothiophene-3-one]
pIC50 (AKAP-PKA interaction; [3]): > 4.60

Cn1c(N/C=C2\Sc3ccccc3C2=O)nc2ccccc21 [T2/3, (2Z)-2-[[(1-methylbenzimidazole-2-yl)amino]methylene]benzothiophene-3-one]
pIC50 (AKAP-PKA interaction; [3]): > 3.82

O=C1/C(=C/Nc2ncccn2)Sc2ccccc21 [T2/49, (2Z)-2-[(pyrimidine-2-ylamino)methylene]benzothiophene-3-one]
pIC50 (AKAP-PKA interaction; [3]): > 3.60
